Measurements published in the supplement of paper PMC10307832.

Assays:
Assay in all cases: relative viability (nuclei count vs DMSO), 5 days (fraction); higher = more cells survive
AZ505 + Alpelisib = compound: C1CCC(CC1)N(CCNCCC2=C3C(=C(C=C2)O)NC(=O)CO3)C(=O)CCNCCC4=CC(=C(C=C4)Cl)Cl [AZ505] + Cc1nc(NC(=O)N2CCC[C@H]2C(N)=O)sc1-c1ccnc(C(C)(C)C(F)(F)F)c1 [Alpelisib] (partner 2 µM)
Method in brief: (§1)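 Lung cancer cell lines were seeded in 1536-well plates and dosed by pin tool the next day, with either a single drug or a fixed anchor-drug dose combined with five library-drug doses (not always all listed) spaced in √10 steps. Five days later, one step fixed the cells and stained their nuclei (final 0.05% Triton X-100, 1% formaldehyde, 1 ug/ml Hoechst), and nuclei were counted on 4× images. Relative viability is the nuclei count in treated wells divided by the count in vehicle wells, and each value is the median of duplicate plates.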

AZ505 + Dasatinib = compound: C1CCC(CC1)N(CCNCCC2=C3C(=C(C=C2)O)NC(=O)CO3)C(=O)CCNCCC4=CC(=C(C=C4)Cl)Cl [AZ505] + Cc1nc(Nc2ncc(C(=O)Nc3c(C)cccc3Cl)s2)cc(N2CCN(CCO)CC2)n1 [Dasatinib] (partner 0.075 µM)
Method in brief: as §1

Dactolisib + Foretinib = compound: Cn1c(=O)n(-c2ccc(C(C)(C)C#N)cc2)c2c3cc(-c4cnc5ccccc5c4)ccc3ncc21 [Dactolisib] + COc1cc2c(Oc3ccc(NC(=O)C4(C(=O)Nc5ccc(F)cc5)CC4)cc3F)ccnc2cc1OCCCN1CCOCC1 [Foretinib] (partner 0.25 µM)
Method in brief: as §1

Dactolisib + Phenformin = compound: Cn1c(=O)n(-c2ccc(C(C)(C)C#N)cc2)c2c3cc(-c4cnc5ccccc5c4)ccc3ncc21 [Dactolisib] + N=C(N)NC(=N)NCCc1ccccc1 [Phenformin] (partner 250 µM)
Method in brief: as §1

| Cell Line | relative viability (AZ505 + Alpelisib; first compound 0.08 µM) | relative viability (AZ505 + Alpelisib; first compound 0.8 µM) | relative viability (AZ505 + Alpelisib; first compound 2.53 µM) | relative viability (AZ505 + Alpelisib; first compound 8 µM) | relative viability (AZ505 + Dasatinib; first compound 0.08 µM) | relative viability (AZ505 + Dasatinib; first compound 0.253 µM) | relative viability (AZ505 + Dasatinib; first compound 0.8 µM) | relative viability (AZ505 + Dasatinib; first compound 2.53 µM) | relative viability (AZ505 + Dasatinib; first compound 8 µM) | relative viability (Dactolisib + Foretinib; first compound 0.002 µM) | relative viability (Dactolisib + Foretinib; first compound 0.006325 µM) | relative viability (Dactolisib + Foretinib; first compound 0.02 µM) | relative viability (Dactolisib + Foretinib; first compound 0.06325 µM) | relative viability (Dactolisib + Foretinib; first compound 0.2 µM) | relative viability (Dactolisib + Phenformin; first compound 0.002 µM) | relative viability (Dactolisib + Phenformin; first compound 0.006325 µM) | relative viability (Dactolisib + Phenformin; first compound 0.02 µM) | relative viability (Dactolisib + Phenformin; first compound 0.06325 µM) | relative viability (Dactolisib + Phenformin; first compound 0.2 µM) | relative viability (AZ505 + Alpelisib; first compound 0.253 µM) |
| --- | --- | --- | --- | --- | --- | --- | --- | --- | --- | --- | --- | --- | --- | --- | --- | --- | --- | --- | --- | --- |
| LXF-289 | 0.983 | 1.02 | 1.06 | 1.01 | 0.231 | 0.189 | 0.169 | 0.249 | 0.181 | 1.02 | 0.952 | 0.99 | 0.987 | 0.827 | 0.571 | 0.499 | 0.534 | 0.518 | 0.439 |  |
| NCI-H23 | 0.617 | 0.653 | 0.644 | 0.845 | 0.721 |  | 0.722 | 0.797 | 0.877 | 1.17 | 0.997 | 0.69 | 0.456 | 0.413 | 0.807 | 0.795 | 0.736 | 0.359 | 0.316 |  |
| NCI-H322M | 0.757 | 0.688 | 0.844 | 0.79 | 0.24 | 0.233 | 0.239 | 0.261 | 0.273 | 1.08 | 0.89 | 0.73 | 0.629 | 0.578 | 0.822 | 0.745 | 0.713 | 0.617 | 0.485 | 0.774 |
| NCI-H358 | 0.699 | 0.859 | 0.729 | 0.795 | 0.226 | 0.145 | 0.192 | 0.115 | 0.167 | 0.738 | 0.769 | 0.623 | 0.312 | 0.165 | 0.317 | 0.302 | 0.286 | 0.221 | 0.111 | 0.741 |
| NCI-H441 | 0.721 | 0.599 | 0.671 | 0.761 | 0.35 | 0.619 | 0.659 | 0.549 | 0.694 | 1.14 | 1.04 | 0.961 | 0.432 | 0.382 | 1.28 | 0.737 | 0.812 | 0.337 | 0.289 | 0.698 |
| NCI-H460 | 0.458 | 0.485 | 0.507 | 0.469 | 0.529 | 0.416 | 0.557 | 0.314 | 0.59 | 1.03 | 1 | 1.03 | 0.493 | 0.407 | 0.506 | 0.474 | 0.508 | 0.142 | 0.0635 | 0.559 |
| NCI-H520 | 0.92 | 0.862 | 0.84 | 0.99 | 0.198 | 0.217 | 0.181 | 0.229 | 0.26 | 0.736 | 0.507 | 0.464 | 0.278 | 0.198 | 0.529 | 0.534 | 0.369 | 0.202 | 0.217 | 0.829 |
| NCI-H596 | 0.483 | 0.49 | 0.626 | 0.52 | 0.605 | 0.577 | 0.591 | 0.657 | 0.56 | 0.83 | 0.809 | 0.473 | 0.316 | 0.242 | 0.738 | 0.767 | 0.627 | 0.468 | 0.372 | 0.453 |
| NCI-H647 | 1.04 | 1.05 | 1.07 | 1.08 | 0.233 | 0.104 | 0.158 | 0.194 | 0.162 | 1.15 | 1.18 | 1.16 | 0.211 | 0.395 | 0.536 | 0.449 | 0.429 | 0.156 | 0.105 | 1.46 |
| NCI-H650 | 1.03 | 1.03 | 1.14 | 1.21 | 0.425 | 0.408 | 0.447 | 0.547 | 0.452 | 0.981 | 1.02 | 1.05 | 0.712 | 0.426 | 0.549 | 0.475 | 0.433 | 0.389 | 0.315 | 1.31 |
| NCI-H661 | 0.666 | 0.738 | 0.81 | 0.907 | 0.862 | 0.932 | 0.731 | 0.958 | 0.964 | 1.04 | 1.01 | 0.977 | 0.439 | 0.459 | 0.254 | 0.278 | 0.292 | 0.216 | 0.265 | 0.493 |
| NCI-H727 | 0.535 | 0.505 | 0.598 | 0.694 | 0.28 | 0.274 | 0.372 |  | 0.504 | 0.906 | 0.882 | 0.762 | 0.4 | 0.425 | 0.653 | 0.588 | 0.528 | 0.359 | 0.309 | 0.621 |
| NCI-H838 | 0.988 | 0.943 | 0.928 | 1.01 | 0.233 | 0.273 | 0.298 | 0.28 | 0.308 | 1.1 | 0.876 | 0.606 | 0.288 | 0.342 | 0.628 | 0.423 | 0.267 | 0.201 | 0.175 | 0.966 |
| NCI-H1355 | 0.775 | 0.834 | 0.65 | 0.902 | 0.695 | 0.674 | 0.603 | 0.702 | 0.748 | 1.05 | 0.902 | 0.664 | 0.509 | 0.223 | 0.497 | 0.429 | 0.43 | 0.373 | 0.316 | 0.769 |
| NCI-H1395 | 1.1 | 0.935 | 1.11 | 1.16 | 0.427 | 0.451 | 0.375 | 0.419 | 0.455 | 1.03 | 0.916 | 0.942 | 0.636 | 0.537 | 0.445 | 0.485 | 0.453 | 0.377 | 0.373 | 1.3 |
| NCI-H1437 | 0.852 | 0.876 | 0.932 | 1 | 0.346 | 0.334 | 0.58 | 0.378 | 0.376 | 1.37 | 1.28 | 1.25 | 1.24 | 1.34 | 0.27 | 0.341 | 0.323 | 0.296 | 0.289 | 0.93 |
| NCI-H1563 | 0.932 | 0.873 | 0.886 | 0.915 | 0.456 | 0.467 | 0.498 | 0.481 | 0.432 | 0.919 | 0.885 | 0.913 | 0.654 | 0.651 | 0.674 | 0.622 | 0.626 | 0.61 | 0.54 | 0.911 |
| NCI-H1651 | 0.94 | 0.977 | 0.89 | 0.939 | 0.47 | 0.416 | 0.386 | 0.441 | 0.49 | 0.918 | 0.782 | 0.561 | 0.321 | 0.345 | 0.333 | 0.279 | 0.305 | 0.243 | 0.204 | 1.03 |
| NCI-H1666 | 0.899 | 0.867 | 0.999 | 1.05 | 0.745 | 0.795 | 0.783 | 0.828 | 0.69 | 0.968 | 0.993 | 0.987 | 0.791 | 0.762 | 0.593 | 0.53 | 0.577 | 0.544 | 0.559 | 1.01 |
| NCI-H1734 | 0.633 | 0.631 | 0.744 | 0.683 | 0.456 | 0.467 | 0.482 | 0.478 | 0.417 | 0.837 | 0.773 | 0.805 | 0.467 | 0.284 | 0.428 | 0.333 | 0.353 | 0.238 | 0.203 | 0.626 |
| NCI-H1755 | 0.893 | 0.911 | 0.883 | 0.923 | 0.393 | 0.51 | 0.43 | 0.442 | 0.474 | 0.903 | 0.924 | 0.936 | 0.676 | 0.691 | 0.647 | 0.617 | 0.612 | 0.549 | 0.476 | 0.915 |
| NCI-H1793 | 0.734 | 0.827 | 0.844 | 0.881 | 0.345 | 0.439 | 0.394 |  | 0.439 | 0.655 | 0.416 | 0.241 | 0.2 | 0.166 | 0.477 | 0.294 | 0.228 | 0.202 | 0.187 | 0.804 |
| NCI-H1915 | 1.01 | 0.977 | 0.986 | 1.08 | 0.28 | 0.298 | 0.269 | 0.275 | 0.337 | 1.19 | 1.06 | 1.08 | 0.832 | 0.467 | 0.376 | 0.387 | 0.391 | 0.344 | 0.327 | 1.1 |
| NCI-H1944 | 0.845 | 0.839 | 0.806 | 0.881 | 0.212 | 0.188 | 0.246 | 0.203 | 0.224 | 1.13 | 0.914 | 0.852 | 0.425 | 0.392 | 0.235 | 0.21 | 0.187 | 0.138 | 0.14 | 0.858 |
| NCI-H1975 | 0.578 | 0.651 | 0.651 | 0.654 | 0.343 | 0.358 | 0.425 | 0.343 | 0.495 | 1.06 | 0.897 | 0.715 | 0.454 | 0.334 | 0.435 | 0.382 | 0.376 | 0.216 | 0.162 | 0.689 |
| NCI-H1993 | 0.544 | 0.753 | 0.741 | 0.608 | 0.653 | 0.722 | 0.611 | 0.623 | 0.737 | 0.706 | 0.774 | 0.61 | 0.473 | 0.492 | 0.486 | 0.509 | 0.518 | 0.5 | 0.572 | 0.729 |
| NCI-H2009 | 1.07 | 1.12 | 1.1 | 1.13 | 0.221 | 0.267 | 0.219 | 0.237 | 0.242 | 1.28 | 1.24 | 1.06 | 1.2 | 0.625 | 0.553 | 0.467 | 0.474 | 0.308 | 0.198 | 1.11 |
